Reference: a melting point compilation (Tetko et al.; mined from patent text by program, amines drawn as free bases though some values may be those of a salt)

Compound	melting point [°C]
CN(C1CCN(Cc2ccsc2)CC1)S(=O)(=O)c1ccc(Nc2nccc(Nc3ccc(F)cc3)n2)cc1	173 to 174
Fc1ccc(CN2CCN(C3CC=C(c4ccc(C(F)(F)F)cc4)CC3)CC2)cc1 (centres undefined)	108 to 109
O=C(Nc1cccc(C(=O)Nc2nnn[nH]2)c1)NC1N=C(c2ccccc2F)c2ccccc2N(CC(=O)N2CC3CCC(CC3)C2)C1=O (racemic)	193 to 196
CC(C)(C)OC(=O)COc1cc(NC(=O)OC(C)(C)C)c(N)cc1-c1ccc(F)cc1	30 to 33
O=C(Nc1ccc(Cl)cc1)c1cc(Br)c2cccnc2c1O	213 to 215
CC(C)(C)C(O)(CNc1ccc(Cl)c(Cl)c1)Cn1cncn1 (centres undefined)	132 to 133
N#CC(C#N)=C1CC=CO1	194 to 196
CN1CCc2c(Br)sc(Br)c2C(c2ccccc2)C1 (centres undefined)	83
OC1c2cc(OCc3ccccn3)ccc2OCC1Cc1cccnc1 (centres undefined)	108 to 110
O=c1[nH]c2ccc(N3CCOCC3)cc2c(=O)o1	235
COc1ccc(/C=C/C2=CCN(Cc3c[nH]c4ncccc34)CC2)cc1	201 to 204
CC12NCCCN1C(=O)c1ccccc12 (centres undefined)	64.5
CCOC(=O)c1cn(CC)c2cc(-c3csc(CN(CCOC(C)=O)C(C)=O)n3)c(F)cc2c1=O	148 to 152
CCCC(C)(C(=O)N(C)C)n1cc(C)c(-c2ccccc2)n1 (centres undefined)	90 to 92
Nc1c(-c2ccc(-c3ccccc3F)cc2)nc2ccc(C(F)(F)F)cc2c1C(=O)O	255 to 260
COC(=O)CSSc1cc(Oc2ccc(C(F)(F)F)cc2Cl)ccc1[N+](=O)[O-]	66 to 68
CCCC(C)(Oc1ccc(CC(=O)Nc2cc(C)cc(C)c2)cc1)C(=O)O (centres undefined)	145 to 147
COc1ccc(C2Sc3c(ccc4ccccc34)N(CCN(C)C)C(=O)C2OC(=O)c2cc(OC)c(OC)c(OC)c2)cc1 (centres undefined)	189 to 190
CN(C)c1cc(CC(C#N)=CNc2ccccc2)cc(N(C)C)c1N(C)C	179 to 181
Nc1c(C(=O)c2cc(Cl)ccc2[N+](=O)[O-])[nH]c2cc(Cl)ccc12	233 to 234

Compound	melting point [°C]
CC(=O)c1cc(Cl)sc1S(=O)(=O)Nc1ccc(CCO)cc1	112 to 116
CCCCCC(CNC(=O)Nc1cc(C(N)=O)ccc1C(C)(C)C)c1ccc(OC)cc1OC (centres undefined)	223 to 224
O=[N+]([O-])c1cccc(SC(CCl)S(=O)(=O)c2cccc([N+](=O)[O-])c2)c1 (centres undefined)	98 to 110
COc1ccc(-c2cc(=Nc3c(C)cc(C)cc3C)n(C)c(N(C)Cc3ccccc3)n2)cc1OC	96 to 98
CCOC(=O)C(=NO)c1ccccc1[N+](=O)[O-]	167 to 168
Cc1nc(-n2ccc(-c3ccc(Cl)cc3)cc2=O)sc1C(=O)NCc1ccccc1	265 to 267
O=Cc1ccc(OCCCC(=O)O)c([N+](=O)[O-])c1	136 to 139
CC(C)(C)c1cc(-n2nc3ccc(Sc4ccc5nn(-c6cc(C(C)(C)C)cc(C(C)(C)C)c6O)nc5c4)cc3n2)c(O)c(C(C)(C)C)c1	245 to 246
CCc1ccccc1NC(=O)C(C#N)=CN(C)C	128 to 130
O=Cc1ccc(O)c(OCc2ccccc2)c1Cl	149 to 150
O=c1c2[nH]c(N(S(=O)(=O)c3ccccc3)S(=O)(=O)c3ccccc3)nc2n(CC2CC2)c(=O)n1CC1CC1	238
CN(CCCCNC(=NCCCOc1cccc(CN2CCCCC2)c1)NC#N)CCN(Cc1ccc(F)cc1)c1ccccn1	84 to 86
O=C(NCc1ccc(Cl)cc1)c1cc(Br)c2cccnc2c1O	148 to 151
CCn1cc(C(=O)O)c(=O)c2cc(F)c(N3CC4CCC3CN4)c(F)c21 (centres undefined)	255 to 257
Clc1ccc2[nH]cc(C3=CCN(CCCOc4cccc5[nH]ccc45)CC3)c2c1	198 to 202
Cc1noc2cc3c(cc12)C1(CO3)C(=O)N(CC2CCCO2)c2ccccc21 (centres undefined)	134 to 135
Cc1c(COc2ccc(-c3ccc(S(=O)(=O)NC(C(=O)O)C(C)C)cc3)cc2)oc2ccc(Br)c(OC(C)C)c12 (centres undefined)	137 to 140
CC(=O)NCC1CN(c2ccc(N3CCC(O)(C(F)(F)F)C(C)C3)c(F)c2)C(=O)O1 (centres undefined)	144 to 146
COc1cc(C(=O)O)ccc1Cc1cn(C)c2ccc(CCNC(=O)N(C)C)cc12	195 to 196

The next lines start with the values.

melting point [°C]	Compound
161 to 163	C=CCn1nc(C)c(C(=O)c2ccc(Cl)cc2Cl)c1O
116 to 117	Cc1cccc2c1NC(=O)C(CCCN1CCN(c3ccc(F)cc3)CC1)S2 (centres undefined)
255 to 256	O=C1Nc2cc(Cl)ccc2Nc2ccsc21
110	CN(C(=O)COc1cc(-c2ccccc2)nc2ccccc12)C1CCC1
244 to 247	Cc1ccc2c(c1)Cn1nnnc1C(=O)N2
68 to 70	CCCCCCCCCCCCCCCCCCOc1ccc(C(=O)OC)c(OCCCOc2ccc(OCc3ccccc3)cc2)c1
156 to 159	CCc1nc2cc(Nc3nccc(-c4ccc(N5CCNCC5)nc4)n3)ccc2o1
162 to 163	CCCC12C=CC=C(N3CCC(c4noc5cc(F)ccc45)CC3)C1(O)C(=O)NC2=O (centres undefined)
114 to 116	Cc1cccc2c1nc(COc1ccc(Cl)cc1)n2CCC(C)CC1NCCc2ccccc21 (racemic)
109	O=C(c1ccccc1)c1cccc(NC(=O)c2ccn3c2CSC3c2cccnc2)c1 (single isomer, unassigned; (+))
154 to 156	Cc1cc2occ(C=O)c(=O)c2cc1C
86 to 96	COc1ccc(CN2CCC(C(O)(c3ccc(OC(F)(F)F)cc3)c3ccc(OC(F)(F)F)cc3)CC2)cc1
64 to 66	CCCc1c(OCCCCCCC#N)ccc(C(C)=O)c1O
112 to 113	COc1ccc2c(c1)CCC1=C2CCC2(C(C)C)C(=O)CC=C12 (centres undefined)
116 to 117	CN(CCCCCCCC(=O)O)c1cnc(-c2ccccc2)c(-c2ccccc2)n1
204 to 205	Cc1cccc2nc(NC(=O)c3ccc(C(C)(C)C)cc3)cn12
119 to 120	COC(=O)CC(NC(=O)OC(C)(C)C)c1ccc(O)cc1 (centres undefined)
82 to 83	CCOC(=O)C=C(NNc1c(C)cc(C)c([N+](=O)[O-])c1C)OC
340	CC(=O)Nc1ccc(OC2CCC3C4CCC5N(C)C(=O)CCC5(C)C4CCC23C)cc1 (centres undefined)
239 to 242	Cc1nc(NC(=O)c2ccccc2S(C)(=O)=O)sc1C(=O)NCc1ccccc1
84 to 85	CCc1c(Sc2cc(Cl)cc(Cl)c2)c(CC#N)nn1CCO
150	CC(OCc1cc2nc(Cl)ccc2n1S(=O)(=O)c1ccccc1)C(=O)O (centres undefined)
76 to 78	CCON1C(C)(C)CC(OC(=O)c2ccccc2)CC1(C)C
216 to 220	O=C(Cn1nnc2ccccc21)Nc1ccc(-n2nc(C3CC3)cc2C2CC2)cc1
87 to 88	CC(C=CCC(C)(O)CO)C1CCC2C(O)CCCC12C (centres undefined)
59	CC1CCCC(=Cc2ccc(Cl)cc2)C1=O (centres undefined)
148 to 150	CCCc1c2ccccc2c(O)c2c(=O)cc(C(=O)OCC)oc12
102 to 103	O=C(CCC(=O)N1CCC(c2ccc(Cl)cc2)CC1)c1ccc2c(c1)CN(Cc1ccccc1)CC2

melting point [°C]	Compound
88 to 90	O=C(C(=O)N1CCCCC1)N1CCCCC1
119 to 121	COC(=O)CC(C#N)(C(=O)OC)c1cccc2ccc(OC)cc12 (centres undefined)
212 to 214	O=C(N[C@H]1CCCNC1=O)c1ccc(C(F)(F)F)cc1
66 to 67	COc1ccc(Cl)cc1C(=O)NCCOc1ccc(CC2SC(=O)NC2=O)cc1 (centres undefined)
160	CCC(=O)C(O)(Cc1ccc(C)cc1)c1ccc(N2CCOCC2)cc1 (centres undefined)
228 to 229	CCCCOc1cc(C(=O)O)cc(S(N)(=O)=O)c1Cc1ccccc1
207 to 209	N#Cc1csc(CN2C(=O)C3(COc4cc5c(cc43)OCO5)c3ccccc32)c1 (centres undefined)
80	CSc1cc(C(F)(F)F)ccc1C#N
145 to 146	COc1nccc(C)c1NC(=O)c1cccnc1Cl
169 to 171	Cc1nc(C(O)(c2nc(C)c(C)s2)C(C)C)sc1C
160 to 162	Nc1nc(Cl)c2ncn(C3C=CC(O)C3)c2n1 (centres undefined)
110 to 112	CCOC(=O)/C=C/c1ccc(OCOC)c(C)c1OCc1ccc(Cl)cc1Cl
186	Cc1nc2ccccn2c(=O)c1CCN1CCc2oc3ccccc3c2C1
199 to 203	CC(C)=CCNC(=O)CCC(NC(=O)C=Cc1ccco1)C(=O)NCC=C(C)C (centres undefined)
189 to 191	Cc1cc([N+](=O)[O-])ccc1NC(=O)C1=C(O)N(C)S(=O)(=O)c2sccc21
129 to 130	CCOC(=O)C(=CNC1CC1)C(=O)c1cc(F)c(Cl)nc1Cl
235 to 237	CC1CN(c2n[nH]c(-c3ccc(Cl)cc3)c2-c2ccncc2)CCN1 (centres undefined)
67 to 75	COC(=O)CCNc1ccccc1CNC(=O)C1Cc2ccccc2N1S(=O)(=O)c1ccc(I)cc1 (centres undefined)
104 to 105	C[C@@H](O)CNC(=O)N1CC(c2ccc(F)cc2)C1
196 to 198	CC(C)(C)c1cc(-c2ccc(NC(=O)c3ccccc3C(=O)O)cc2)cc(C(C)(C)C)c1O
190 to 192	CNc1nc(Nc2ccccc2C)c2cccc(OC)c2n1
175 to 178	O=C(Nc1cccc(Cc2ccccc2)c1)N1CCc2c(cnc3[nH]ncc23)C1
104 to 105	CC(C)Oc1cc(CCC(=O)NS(C)(=O)=O)n(Cc2ccc(Cl)cc2Cl)n1
175 to 178	CC(C)CC(=O)Nc1cccc(-c2ccnc3c(-c4ccc(Oc5ccccc5)cc4)cnn23)c1
198 to 199	CN1CC=C(c2c[nH]c(-c3ccc(F)cc3)c2-c2ccncc2)CC1Cc1ccccc1 (centres undefined)
92 to 94	COC(=O)COc1ccc(SCc2cc(-c3ccc(Cl)cc3)no2)c2c1CCC2
112 to 114	CCOC(=O)c1oc2cc(SC(=O)N(C)C)ccc2c1C
